Source: patent US20240308990A1, “CRYSTAL FORM OF ENTRECTINIB AND PREPARATION METHOD THEREFOR” (QILU PHARMACEUTICAL CO., LTD., priority 2021, published 2024)
In brackets after ≈: the same amount, converted by molar mass. Read-outs that look alike come from different tables or passages of the source.

Assays:
[1] = Chemical stability test (affecting factors, HPLC purity); format: physicochemical; details: for Chemical stability (in words): after a 10-day affecting factor test
Description: For the specific method for testing the stability, reference could be made to high performance liquid chromatography in General Chapter 0512, Chinese Pharmacopoeia, Volume IV, 2015 Edition.

[2] = Crystal form stability test (affecting factors); format: physicochemical; details: for Crystal form stability (in words): after a 10-day affecting factor test
Description: The experimental method was as follows: a ground sample (100 mg) was filled in a groove of a glass plate, the plane of the sample was made to the same level as the glass surface by using a glass slide, the sample was placed in a PANalytical X-ray powder diffractometer, and a 40 kV and 40 mA copper X-ray source was used, with a scanning range of 3-45° (2θ) and a scanning rate of 8°/min. The scanning error is typically ±0.2 degrees (2θ).

[3] = Solubility comparison of crystals; format: physicochemical; details: for Solubility compared with crystal form 2 and crystal form 4: 95% ethanol and aqueous solution with pH=1; for solubility at 20 min: thermodynamic from solid; for solubility at 20 min / Solubility in 95% ethanol / Solubility in aqueous solution with pH = 1: 25° C., dissolution time 20 min
Description: • Dissolution temperature: 25° C. • Dissolution time: 20 min

[4] = Preparation stability of crystal forms (mixing and slurrying, X-RPD); format: physicochemical; details: for Converted crystal form: 0.1 g mixed with 0.1 g crystal form A of Example 2, slurried in acetone/water at room temperature for 10 h
Description: The mixing and slurring method was as follows: 0.1 g of each of the two crystal forms to be mixed was weighed and added into a single-necked flask. 2 mL of acetone and 1 mL of water were added. The mixture was stirred and slurried at room temperature for 10 h, filtered, and dried in air at room temperature to obtain crystals. The crystal forms were determined by X-RPD.

[5] = Crystal microscopic morphology by scanning electron microscope; format: physicochemical
Description: The experimental method was as follows: an appropriate amount of test sample was taken, uniformly spread on a conductive adhesive tape, sprayed with gold, and observed under an electron microscope.
(§1) The determination results are as follows.

[6] = Crushing, static electricity and fluidity test; format: physicochemical; details: for Static electricity: reference forms: after crushing
Description: as §1

[7] = background statement; cited from earlier work
[8] = High humidity condition 90% RH, 10 days
[9] = High temperature condition 60° C., 10 days
[10] = Light condition 5000 lux/h, 10 days

Structure (SMILES): CN1CCN(c2ccc(C(=O)Nc3n[nH]c4ccc(Cc5cc(F)cc(F)c5)cc34)c(NC3CCOCC3)c2)CC1 [Crystal form A of Example 2, N-[5-(3,5-difluorobenzyl)-1H-indazol-3-yl]-4-(4-methylpiperazin-1-yl)-2-[(tetrahydro-2H-pyran-4-yl)amino]benzamide]
- Purity (%) ([1]; 0 day): 99.92%
- Purity (%) [1, 8]: 99.92%
- Purity (%) [1, 9]: 99.91%
- Purity (%) [1, 10]: 99.91%
- Chemical stability (in words) [1]: good chemical stability
- Crystal form found ([2]; 0 day): form A
- Crystal form found [2, 8]: form A
- Crystal form found [2, 9]: form A
- Crystal form found [2, 10]: form A
- Crystal form stability (in words) [2]: good crystal form stability
- Solubility compared with crystal form 2 and crystal form 4 [3]: better solubility
- solubility at 20 min ([3]; 95% ethanol, 25 °C, organic solvent or mixture, read-out: Solubility in 95% ethanol): 28.4 mg/mL (≈ 50.7 mM)
- solubility at 20 min ([3]; aqueous solution with pH 1, 25 °C, pH 1, simulated gastric fluid, read-out: Solubility in aqueous solution with pH = 1): 22.6 mg/mL (≈ 40.3 mM)
- Crystal conversion in acetone/water slurry (in words) ([4]; acetone/water system, room temperature, 10 h): will not be subjected to crystal conversion
- electron microscopy results of the crystal: length of larger crystals/particles [5]: ~20 μm
- electron microscopy results of the crystal: shape and size uniformity [5]: Rod-shaped, relatively uniform size,
- Fluidity [6]: good fluidity
- Fluidity ([6]; listed as crystal form A): good fluidity

Structure (SMILES): CN1CCN(c2ccc(C(=O)Nc3n[nH]c4ccc(Cc5cc(F)cc(F)c5)cc34)c(NC3CCOCC3)c2)CC1 [Crystal form 2 of Reference Example 2, entrectinib]
- Purity (%) ([1]; 0 day): 99.34%
- Purity (%) [1, 8]: 99.33%
- Purity (%) [1, 9]: 99.34%
- Purity (%) [1, 10]: 99.33%
- Crystal form found ([2]; 0 day): form 2
- Crystal form found [2, 8]: form 2
- Crystal form found [2, 9]: form 2
- Crystal form found [2, 10]: form 2
- Solubility in 95% ethanol [3]: 21.1 mg/mL (≈ 37.6 mM)
- Solubility in aqueous solution with pH = 1 [3]: 19.1 mg/mL
- Converted crystal form [4]: Crystal form A
- electron microscopy results of the crystal: length of larger crystals/particles [5]: about 85 μm
- electron microscopy results of the crystal: shape and size uniformity [5]: Sheet-shaped, fragile, non-uniform
- Fluidity [6]: crushing, and poor fluidity
- Fluidity ([6]; listed as crystal form 2): poor fluidity
- Static electricity [6]: relatively strong static electricity after
- Static electricity ([6]; listed as crystal form 2): relatively strong static electricity after being crushed
- Solubility (in words) [7]: poor solubility

Structure (SMILES): CN1CCN(c2ccc(C(=O)Nc3n[nH]c4ccc(Cc5cc(F)cc(F)c5)cc34)c(NC3CCOCC3)c2)CC1 [Crystal form 1 of Reference Example 1, entrectinib]
- Purity (%) ([1]; 0 day): 99.21%
- Purity (%) [1, 8]: 99.20%
- Purity (%) [1, 9]: 99.20%
- Purity (%) [1, 10]: 99.19%
- Crystal form found ([2]; 0 day): form 1
- Crystal form found [2, 8]: form 1
- Crystal form found [2, 9]: form 2
- Crystal form found [2, 10]: form 1
- Crystal form stability (in words) ([2]; listed as crystal form 1 in Reference Example 1): unstable and shows crystal form conversion under a high temperature condition
- Crystal form stability (in words) [7]: unstable and is easy to be converted into another crystal form

Structure (SMILES): CN1CCN(c2ccc(C(=O)Nc3n[nH]c4ccc(Cc5cc(F)cc(F)c5)cc34)c(NC3CCOCC3)c2)CC1 [Crystal form AZT-E of Reference Example 6] [entrectinib]
- Converted crystal form [4]: Crystal form A
- electron microscopy results of the crystal: length of larger crystals/particles [5]: more than about 1000 μm
- electron microscopy results of the crystal: shape and size uniformity [5]: Irregular bulk-shaped, non-uniform
- Fluidity [6]: poor fluidity
- Fluidity ([6]; listed as crystal form AZT-E): poor fluidity
- Static electricity [6]: strong static electricity after crushing, and
- Static electricity ([6]; listed as crystal form AZT-E): relatively strong static electricity after being crushed

Structure (SMILES): CN1CCN(c2ccc(C(=O)Nc3n[nH]c4ccc(Cc5cc(F)cc(F)c5)cc34)c(NC3CCOCC3)c2)CC1 [Crystal form AZT-A of Reference Example 4] [entrectinib]
- Converted crystal form [4]: Crystal form A
- electron microscopy results of the crystal: length of larger crystals/particles [5]: about 700 μm
- electron microscopy results of the crystal: shape and size uniformity [5]: Irregular bulk-shaped, non-uniform
- Fluidity [6]: poor fluidity
- Fluidity ([6]; listed as crystal form AZT-A): poor fluidity
- Static electricity [6]: strong static electricity after crushing, and
- Static electricity ([6]; listed as crystal form AZT-A): relatively strong static electricity after being crushed

Structure (SMILES): CN1CCN(c2ccc(C(=O)Nc3n[nH]c4ccc(Cc5cc(F)cc(F)c5)cc34)c(NC3CCOCC3)c2)CC1 [Crystal form B of Example 5, N-[5-(3,5-difluorobenzyl)-1H-indazol-3-yl]-4-(4-methylpiperazin-1-yl)-2-[(tetrahydro-2H-pyran-4-yl)amino]benzamide]
- Purity (%) ([1]; 0 day): 99.91%
- Purity (%) [1, 8]: 99.90%
- Purity (%) [1, 9]: 99.91%
- Purity (%) [1, 10]: 99.91%
- Chemical stability (in words) [1]: good chemical stability
- Crystal form found ([2]; 0 day): form B
- Crystal form found [2, 8]: form B
- Crystal form found [2, 9]: form B
- Crystal form found [2, 10]: form B
- Crystal form stability (in words) [2]: good crystal form stability
- Solubility in 95% ethanol [3]: 26.2 mg/mL (≈ 46.7 mM)
- Solubility in aqueous solution with pH = 1 [3]: 21.0 mg/mL
- Solubility compared with crystal form 2 and crystal form 4 [3]: better solubility
- electron microscopy results of the crystal: length of larger crystals/particles [5]: ~10 μm
- electron microscopy results of the crystal: shape and size uniformity [5]: Rod-shaped, relatively uniform size,
- Fluidity [6]: good fluidity
- Fluidity ([6]; listed as crystal form B): good fluidity

Structure (SMILES): CN1CCN(c2ccc(C(=O)Nc3n[nH]c4ccc(Cc5cc(F)cc(F)c5)cc34)c(NC3CCOCC3)c2)CC1 [Crystal form AZT-B of Reference Example 5] [entrectinib]
- Converted crystal form [4]: Crystal form A
- electron microscopy results of the crystal: length of larger crystals/particles [5]: more than about 1000 μm
- electron microscopy results of the crystal: shape and size uniformity [5]: Irregular bulk-shaped, non-uniform
- Fluidity [6]: poor fluidity
- Fluidity ([6]; listed as crystal form AZT-B): poor fluidity
- Static electricity [6]: strong static electricity after crushing, and
- Static electricity ([6]; listed as crystal form AZT-B): relatively strong static electricity after being crushed

Structure (SMILES): CN1CCN(c2ccc(C(=O)Nc3n[nH]c4ccc(Cc5cc(F)cc(F)c5)cc34)c(NC3CCOCC3)c2)CC1 [Crystal form 4 of Reference Example 3, entrectinib]
- Purity (%) ([1]; 0 day): 99.29%
- Purity (%) [1, 8]: 99.29%
- Purity (%) [1, 9]: 99.28%
- Purity (%) [1, 10]: 99.28%
- Crystal form found ([2]; 0 day): form 4
- Crystal form found [2, 8]: form 4
- Crystal form found [2, 9]: form 4
- Crystal form found [2, 10]: form 4
- Solubility in 95% ethanol [3]: 20.5 mg/mL (≈ 36.6 mM)
- Solubility in aqueous solution with pH = 1 [3]: 18.8 mg/mL
- Converted crystal form [4]: Crystal form A
